Test system: 857933-349-R-J2-PDC complex spheroids, viability
Experiment: Anticancer human tumor 857933-349-R-J2-PDC patient-derived colon adenocarcinoma cell line growth inhibition [GQUAD]
Conditions: for IC50: curve of first compound; for viability, T/C: stronger effect = lower value; active = viability on the fitted dose curve at most 10% of control; inactive = the rest
How it was run: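 Tumor cells were grown as complex spheroids with HUVEC endothelial cells and mesenchymal stem cells as stroma. G-quadruplex stabilizers were combined with targeted agents over half-log dilutions from near the clinical Cmax, or from 10 microM.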

[1] = second compound 0.0316 µM, first compound 0.0316 µM
[2] = second compound 0.0316 µM, first compound 0.316 µM
[3] = second compound 0.1 µM, first compound 0.0316 µM
[4] = second compound 0.1 µM, first compound 0.316 µM
[5] = second compound 0.316 µM, first compound 0.0316 µM
[6] = second compound 0.316 µM, first compound 0.316 µM
[7] = second compound 1 µM, first compound 0.0316 µM
[8] = second compound 1 µM, first compound 0.316 µM
[9] = second compound 3.16 µM, first compound 0.0316 µM
[10] = second compound 3.16 µM, first compound 0.316 µM
[11] = second compound 10 µM, first compound 0.0316 µM
[12] = second compound 10 µM, first compound 0.316 µM
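Note: spheroids exposed to compounds for one week before readout.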
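Throughout, for viability, T/C: percent viability relative to vehicle DMSO wells taken as 100%.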

CC1COCCN1c1cc(C2(S(C)(=N)=O)CC2)nc(-c2ccnc3[nH]ccc23)n1 (centres undefined) + CN(C)c1ccc(Nc2c3ccc(NC(=O)CCN4CCCC4)cc3nc3cc(NC(=O)CCN4CCCC4)ccc23)cc1
> 10 µM: IC50 (second compound 0.0316 µM) | IC50 (second compound 0.1 µM) | IC50 (second compound 0.316 µM) | IC50 (second compound 1 µM) | IC50 (second compound 3.16 µM) | IC50 (second compound 10 µM)
inactive: viability, T/C [1] 104% | viability, T/C (second compound 0.0316 µM, first compound 0.1 µM) 108% | viability, T/C [2] 102% | viability, T/C (second compound 0.0316 µM, first compound 1 µM) 87.7% | viability, T/C (second compound 0.0316 µM, first compound 3.16 µM) 82.4% | viability, T/C (second compound 0.0316 µM, first compound 10 µM) 63.2% | viability, T/C [3] 106% | viability, T/C (second compound 0.1 µM, first compound 0.1 µM) 102% | viability, T/C [4] 101% | viability, T/C (second compound 0.1 µM, first compound 1 µM) 94.9% | viability, T/C (second compound 0.1 µM, first compound 3.16 µM) 75.1% | viability, T/C (second compound 0.1 µM, first compound 10 µM) 69.2% | viability, T/C [5] 103% | viability, T/C (second compound 0.316 µM, first compound 0.1 µM) 99.1% | viability, T/C [6] 97.8% | viability, T/C (second compound 0.316 µM, first compound 1 µM) 88.8% | viability, T/C (second compound 0.316 µM, first compound 3.16 µM) 86.6% | viability, T/C (second compound 0.316 µM, first compound 10 µM) 66.1% | viability, T/C [7] 99.2% | viability, T/C (second compound 1 µM, first compound 0.1 µM) 94.6% | viability, T/C [8] 96.4% | viability, T/C (second compound 1 µM, first compound 1 µM) 88% | viability, T/C (second compound 1 µM, first compound 3.16 µM) 82.5% | viability, T/C (second compound 1 µM, first compound 10 µM) 62.7% | viability, T/C [9] 92.3% | viability, T/C (second compound 3.16 µM, first compound 0.1 µM) 84.9% | viability, T/C [10] 94.8% | viability, T/C (second compound 3.16 µM, first compound 1 µM) 81.2% | viability, T/C (second compound 3.16 µM, first compound 3.16 µM) 81.6% | viability, T/C (second compound 3.16 µM, first compound 10 µM) 59.6% | viability, T/C [11] 70.8% | viability, T/C (second compound 10 µM, first compound 0.1 µM) 76.8% | viability, T/C [12] 77.5% | viability, T/C (second compound 10 µM, first compound 1 µM) 78% | viability, T/C (second compound 10 µM, first compound 3.16 µM) 69.8% | viability, T/C (second compound 10 µM, first compound 10 µM) 61.4%

CC[C@@]1(O)C(=O)OCc2c1cc1n(c2=O)Cc2cc3c(CN(C)C)c(O)ccc3nc2-1 + Cc1[nH]c2ccc(F)cc2c1-c1nc2c3cccnc3c3ncccc3c2[nH]1
0.164 µM: IC50 (second compound 1 µM)
0.144 µM: IC50 (second compound 0.316 µM)
0.132 µM: IC50 (second compound 3.16 µM)
0.153 µM: IC50 (second compound 0.0316 µM)
inactive: viability, T/C (second compound 0.0316 µM, first compound 0.000999 µM) 96.7% | viability, T/C (second compound 0.0316 µM, first compound 0.00316 µM) 94.6% | viability, T/C (second compound 0.0316 µM, first compound 0.00999 µM) 89.8% | viability, T/C [1] 63.5% | viability, T/C (second compound 0.0316 µM, first compound 0.0999 µM) 60.8% | viability, T/C [2] 39.6% | viability, T/C (second compound 0.1 µM, first compound 0.000999 µM) 91.8% | viability, T/C (second compound 0.1 µM, first compound 0.00316 µM) 99.7% | viability, T/C (second compound 0.1 µM, first compound 0.00999 µM) 90.2% | viability, T/C [3] 67.7% | viability, T/C (second compound 0.1 µM, first compound 0.0999 µM) 56.6% | viability, T/C [4] 39.7% | viability, T/C (second compound 0.316 µM, first compound 0.000999 µM) 102% | viability, T/C (second compound 0.316 µM, first compound 0.00316 µM) 93.6% | viability, T/C (second compound 0.316 µM, first compound 0.00999 µM) 97.6% | viability, T/C [5] 72.6% | viability, T/C (second compound 0.316 µM, first compound 0.0999 µM) 54.9% | viability, T/C [6] 42.8% | viability, T/C (second compound 1 µM, first compound 0.000999 µM) 103% | viability, T/C (second compound 1 µM, first compound 0.00316 µM) 89.1% | viability, T/C (second compound 1 µM, first compound 0.00999 µM) 92.8% | viability, T/C [7] 73.9% | viability, T/C (second compound 1 µM, first compound 0.0999 µM) 60.5% | viability, T/C [8] 36.6% | viability, T/C (second compound 3.16 µM, first compound 0.000999 µM) 97.8% | viability, T/C (second compound 3.16 µM, first compound 0.00316 µM) 95.7% | viability, T/C (second compound 3.16 µM, first compound 0.00999 µM) 88.8% | viability, T/C [9] 90.8% | viability, T/C (second compound 3.16 µM, first compound 0.0999 µM) 53.4% | viability, T/C [10] 39.2% | viability, T/C (second compound 10 µM, first compound 0.000999 µM) 105% | viability, T/C (second compound 10 µM, first compound 0.00316 µM) 86.2% | viability, T/C (second compound 10 µM, first compound 0.00999 µM) 89.4% | viability, T/C [11] 73.7% | viability, T/C (second compound 10 µM, first compound 0.0999 µM) 62.6% | viability, T/C [12] 40.4%
0.13 µM: IC50 (second compound 0.1 µM)
0.192 µM: IC50 (second compound 10 µM)

Source: PubChem BioAssay AID2060491 (Molecular Pharmacology Branch, DTP, NCI, 2025)
